Publication PMC9747239, “State-selective modulation of heterotrimeric Gαs signaling with macrocyclic peptides” (Cell, 2022)
Where a SMILES comes first, the peptide text is derived from it. Bridges are numbered along the chain shown (N, C = ends). [ ]: non-standard residue; d: D form.

What was measured:
Gαs/GDP and Gβγ(C68S) = target: T1, Gαs/GDP and Gβγ(C68S) (Homo sapiens, UniProt P63092); assay: FRET based Gαs/Gβγ interaction assay; format: binding; conditions: FRET, Gαs/GDP 4 nM, Gβ1/γ2(C68S) 2 nM; read-out: IC50, inhibition of Gαs/Gβγ interaction
T1 construct: hexahistidine (N, cleaved yes); made in house; host or cells: E. coli BL21(DE3) (Gαs); Sf9 insect cells (Gβ1γ2)
T1 sequence (P63092 with tags, fused parts or gaps isoform P63092-2): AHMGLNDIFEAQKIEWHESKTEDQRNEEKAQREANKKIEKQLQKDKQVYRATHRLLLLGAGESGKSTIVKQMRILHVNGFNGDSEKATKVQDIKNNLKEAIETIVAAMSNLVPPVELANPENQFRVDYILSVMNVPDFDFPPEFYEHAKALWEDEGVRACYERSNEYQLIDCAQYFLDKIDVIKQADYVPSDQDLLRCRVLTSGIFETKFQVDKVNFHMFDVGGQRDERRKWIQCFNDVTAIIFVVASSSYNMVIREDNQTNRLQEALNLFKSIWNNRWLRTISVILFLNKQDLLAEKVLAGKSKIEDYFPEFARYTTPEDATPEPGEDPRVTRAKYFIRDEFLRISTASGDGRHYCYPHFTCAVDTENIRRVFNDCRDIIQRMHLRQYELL

Gαs = target: T2, Gαs (Homo sapiens, UniProt P63092); assay: Steady-state GTPase assay, Gαs short isoform; format: biochemical; conditions: read-out: IC50, inhibition of Gαs steady-state GTPase activity
T2 construct: vector His tag with thrombin/Drice site (removed); made in house; host or cells: E. coli BL21(DE3)
T2 sequence (P63092 with tags, fused parts or gaps isoform P63092-2): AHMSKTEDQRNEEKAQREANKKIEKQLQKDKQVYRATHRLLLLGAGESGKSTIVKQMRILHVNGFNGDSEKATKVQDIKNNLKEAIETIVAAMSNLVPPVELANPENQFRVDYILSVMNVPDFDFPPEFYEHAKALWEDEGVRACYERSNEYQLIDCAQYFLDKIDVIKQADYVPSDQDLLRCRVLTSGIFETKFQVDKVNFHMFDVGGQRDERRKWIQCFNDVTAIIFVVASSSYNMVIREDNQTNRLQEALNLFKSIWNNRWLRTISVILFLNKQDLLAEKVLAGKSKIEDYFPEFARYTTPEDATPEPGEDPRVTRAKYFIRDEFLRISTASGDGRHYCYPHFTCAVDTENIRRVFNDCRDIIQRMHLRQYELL
Procedure: (§1) WT Gαs (both short and long) was diluted to a 6 μM stock (4X) in GTPase assay buffer (20 mM HEPES 7.5, 150 mM NaCl, 1 mM MgCl2). The protein was 1:1 (v/v) diluted with 4X cyclic peptide stock (0, 1.56, 3.12, 6.25, 12.5, 25, 50, 100 μM) in GTPase assay buffer, and incubated at 37°C for an hour. The samples were then 1:1 (v/v) diluted with reaction buffer (20 mM HEPES 7.5, 150 mM NaCl, 1 mM MgCl2, and 1 mM GTP) and incubated at 37°C. After 30, 50, 70, 90 min, 50 μL of the sample was removed to measure the inorganic phosphate (Pi) concentration by PiColorLock Phosphate Detection kit. A standard curve was made using the 0.1 mM Pi stock in the kit. Final [cyclic peptide]: 0, 0.39, 0.78, 1.56, 3.12, 6.25, 12.5, 25 μM; Final [Gαs]: 1.5 μM; Final [GTP]: 500 μM.

long isoform of Gαs = target: T3, long isoform of Gαs (Homo sapiens, UniProt P63092); assay: Steady-state GTPase assay, Gαs long isoform; format: biochemical; conditions: read-out: IC50, inhibition of steady-state GTPase activity of long isoform of Gαs
T3 construct: made in house; host or cells: E. coli BL21(DE3)
T3 sequence (P63092 whole entry, canonical isoform): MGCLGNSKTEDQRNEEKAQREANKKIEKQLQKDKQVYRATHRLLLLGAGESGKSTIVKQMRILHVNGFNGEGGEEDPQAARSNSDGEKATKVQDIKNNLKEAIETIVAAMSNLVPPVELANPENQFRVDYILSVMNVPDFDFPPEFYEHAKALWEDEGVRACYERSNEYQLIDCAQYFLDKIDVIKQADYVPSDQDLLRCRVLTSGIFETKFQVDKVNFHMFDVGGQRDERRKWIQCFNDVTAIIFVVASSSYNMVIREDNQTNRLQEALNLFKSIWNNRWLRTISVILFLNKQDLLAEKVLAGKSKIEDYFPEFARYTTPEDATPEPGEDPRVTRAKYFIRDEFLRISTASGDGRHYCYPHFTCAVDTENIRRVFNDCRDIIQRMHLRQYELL
Procedure: as §1

Plasma stability assay = format: in vitro ADME; conditions: both sexes, pooled human plasma, 37 °C, values represent 95% confidence intervals, read-out: Half-life (hour), plasma stability
Procedure: (§2) These assays were conducted by Pharmaron Beijing CO., Ltd. Cyclic peptides working solutions were prepared at 10 μM in DMEM with 10% FBS (Avantor, Cat# 76,294–180) or human plasma (Pooled, Male & Female, BioIVT, Cat# HMN666664). The assays were performed in duplicate. Vials were incubated at 37 °C at 60 rpm in a water bath and taken at designated time points including 0, 480, 1080 and 1440 min. For each time point, the initiation of the reaction was staggered so all the time points were terminated with cold acetonitrile containing internal standards (IS, 100 nM alprazolam, 200 nM labetalol, 200 nM Imipramine and 2 μM ketoplofen) at the same time. Samples were vortexed then centrifuged at 4°C to remove proteins. The supernatants from centrifugation were diluted by ultra-pure H2O and used for LC-MS/MS analysis. All calculations were carried out using GraphPad Prism. Remaining percentages of parent compounds at each time point were estimated by determining the peak area ratios from extractedion chromatograms.

Gαs/GDP = target: T4, Gαs/GDP (Homo sapiens, UniProt P63092); assay: Bio-layer interferometry (BLI), GDP-bound Gαs; conditions: read-out: KD, binding to Gαs/GDP
T4 construct: hexahistidine (N, cleaved yes); made in house; host or cells: E. coli BL21(DE3)
Procedure: (§3) BLI experiments were performed using an OctetRED384 instrument from ForteBio. All experiments were performed at 25°C using BLI buffer (10 mM HEPES pH 7.4, 150 mM NaCl, 1mM MgCl2, 0.05% Tween 20, 0.1% DMSO, 0.2 mM GNP or GDP). Cyclic peptides or Gα proteins were diluted to a series of concentrations (Final concentrations were indicated in Figures) in BLI buffer plus 10 μM Biotin. Assays were conducted in Greiner 384well, black, flat bottom polypropylene plates containing the protein solutions, BLI buffer plus 10 μM Biotin for dissociation, and serial dilutions of cyclic peptides to be tested.
(§4) Biotinylated proteins or cyclic peptides were immobilized on Streptavidin biosensors by dipping sensors into plate wells containing protein solutions at a concentration of 50–150 nM. Protein loading is around 2–3 nm. Cyclic peptide loading is around 0.2–0.3 nm. Sensors loaded with proteins or cyclic peptides were moved and dipped into wells with BLI buffer plus 10 μM Biotin to block unlabeled Streptavidin. […]
(§5) Raw kinetic data collected were processed with the Data Analysis software provided by the manufacturer using single reference subtraction in which buffer-only reference was subtracted (For GN13 analysis). […] The resulting data were analyzed based on a 1:1 binding model from which kon and koff values were obtained and then Kd values were calculated.

[1] = Chemical stability assay in DMEM with 10% FBS; format: in vitro ADME; conditions: bovine, DMEM with 10% FBS (fetal bovine serum), 37 °C, values represent 95% confidence intervals, read-out: Half-life (hour), chemical stability in DMEM with 10% FBS
Procedure: as §2

Gαs (short isoform) = target: T5, Gαs (short isoform) (Homo sapiens, UniProt P63092); assay: Reconstituted adenylyl cyclase (AC) activity assay, Gαs/GNP-mediated AC activation; format: biochemical; conditions: Gαs/GNP 125 nM, read-out: IC50, inhibition of Gαs-mediated AC activation
T5 construct: vector His tag with thrombin/Drice site (removed); made in house; host or cells: E. coli BL21(DE3)
Procedure: Cyclic peptides (4 mM stock in DMSO) were diluted to 4X stocks with a series of concentrations in reaction buffer (1x PBS 7.4, 0.1% BSA). Gαs at a concentration of 8.5 mg/mL (about 190 μM) in 20 mM HEPES 8.0, 150 mM NaCl, 5 mM MgCl2, 1 mM EDTA-Na 8.0 was diluted to 0.5 μM in dilution buffer (1x PBS 7.4, 0.1% BSA, 1 mM EDTA-Na 8.0, 2 mM DTT, 0.1mM MgCl2) plus 1mM GNP (For the GDP-bound R201 mutants, GDP was used in the nucleotide exchange experiments). After incubation at room temperature for 1 h to allow nucleotide exchange, 2.5 μL of 4x Gαs dilution was mixed with 1 μL MgCl2 stock (20 mM MgCl2, 1x PBS 7.4, 0.1% BSA) in an OptiPlate-384, White Opaque 384-well Microplate to lock Gαs in GNP-bound state. 2 μL of 5x AC stock (2 μM VC1, 2 nM IIC2, 150 μM FSK, 1x PBS 7.4, 0.1% BSA) was added, followed by addition of 2.5 μL 4X cyclic peptides stock. […] The cAMP concentrations were measured by the LANCE Ultra cAMP kit. […]
cAMP concentrations measurement by the LANCE Ultra cAMP kit: A cAMP standard curve was generated in the same plate using the 50 μM cAMP standard in the kit. […] 10 μL of each diluted sample was mixed with 5 μL of 4X Eu-cAMP tracer and 5 μL of 4X ULight-anti-cAMP in a white, opaque Optiplate-384 microplate, incubated for 1 h at room temperature, and the time-resolved fluorescence resonance energy transfer (TR-FRET) signals were read on a Spark 20M plate reader. […]

Gαs/GNP = target: T6, Gαs/GNP (Homo sapiens, UniProt P63092); assay: Bio-layer interferometry (BLI), GNP-bound Gαs; conditions: immobilized Gαs/GNP, read-out: KD, binding to Gαs/GNP
T6 construct: hexahistidine (N, cleaved yes); made in house; host or cells: E. coli BL21(DE3)
Procedure: as §3, §4, §5

IC50 (Gαs/GDP and Gβγ(C68S)) [nM]	IC50 (Gαs) [nM]	IC50 (long isoform of Gαs) [nM]	half-life at 10 μM (Plasma stability assay) [h]	Kd (Gαs/GDP) [nM]	half-life at 10 μM [1] [h]	IC50 (Gαs (short isoform)) [nM]	Kd (Gαs/GNP) [nM]	Compound
18.4 ± 2	1150 ± 160	1320 ± 170	16.4 to 27.1	31.4 ± 0.7	> 142	–	–	CC[C@H](C)[C@@H]1NC(=O)[C@H](CC(C)C)NC(=O)[C@@H](Cc2ccc(O)cc2)NC(=O)CSC[C@@H](C(=O)NCC(N)=O)NC(=O)[C@@H]2CCCN2C(=O)[C@H](CC(C)C)NC(=O)[C@H](CC(N)=O)NC(=O)[C@H](Cc2ccccc2)NC(=O)[C@H](C)NC(=O)[C@H](Cc2c[nH]c3ccccc23)NC(=O)[C@H](CCC(N)=O)NC(=O)[C@H](CCCNC(=N)N)NC(=O)[C@H](Cc2ccccc2)NC(=O)[C@H]([C@@H](C)O)NC1=O [GD20] ({CH2CO}-[dY]LITFRQWAFNLPCG-NH2; thioether N-14)
–	–	–	> 82	–	> 76	4150 ± 1130	190 ± 20	CC[C@H](C)[C@@H]1NC(=O)[C@H](C)NC(=O)[C@H](Cc2ccc(O)cc2)NC(=O)[C@H](C(C)C)NC(=O)[C@H](CO)NC(=O)[C@H](CCC(=O)O)NC(=O)[C@H](Cc2ccccc2)NC(=O)[C@@H](Cc2ccc(O)cc2)NC(=O)CSC[C@@H](C(=O)NCC(N)=O)NC(=O)[C@H](CC(C)C)NC(=O)[C@H]([C@@H](C)O)NC(=O)CNC(=O)[C@H](Cc2c[nH]c3ccccc23)NC1=O [GN13] ({CH2CO}-[dY]FESVYAIWGTLCG-NH2; thioether N-13)
